Assay results from publication PMC9146984, “A Novel Proline-Rich Cathelicidin from the Alpaca Vicugna pacos with Potency to Combat Antibiotic-Resistant Bacteria: Mechanism of Action and the Functional Role of the C-Terminal Region” (Membranes, 2022).
In brackets after ≈: the same amount, converted by molar mass. Where a SMILES comes first, the peptide text is derived from it.

What was measured:
[1] = system: proinflammatory macrophages (MΦ1) from THP-1; assay: Cytokine response (multiplex xMAP immunoassay); assay type: cell-based, human; details: 2 µM peptide, 24 h
Description: (§1) Acute monocytic leukemia THP-1 line (ATCC TIB-202) was cultured in complete RPMI 1640 medium (Invitrogen, Waltham, MA, USA) containing 10% FBS, 1× antibiotic-antimycotic solution (Invitrogen, Waltham, MA, USA), and 0.05 mM β-mercaptoethanol, in the CO2-incubator (5% CO2, 37 °C). THP-1 cells were differentiated into proinflammatory macrophages (MΦ1) according to the previously reported protocol. Primary peripheral blood mononuclear cells (PBMC) collected from a healthy donor were purchased from American Type Culture Collection (ATCC PCS-800-011), thawed, and seeded into a 96-well plate one day prior to the experiment at a density of 2 × 10^5 cells/well. Two different cell subpopulations (monocytes and T-/B-/NK-lymphocytes) were isolated from PBMC based on their adherence ability. Macrophages MΦ1 were washed out and seeded into 96-well plates at a density of 10^5 cells/well one day prior to the experiment. The next day medium in each well was replaced by a fresh complete RPMI 1640 medium with or without 2 μM of cathelicidin (VicBac[1–22] or VicBac[1–39]). Cell cultures were kept in a CO2 incubator (5% CO2, 37 °C) for 24 h. Culture supernatants were collected 24 h later and stored at −70 °C degrees less than one week prior to the assessment of analytes. 27 analytes were measured at a protein level by multiplex xMAP technology using the MILLIPLEX MAP Human Cytokine/Chemokine Magnetic Bead Immunology Panel kit (HCYTOMAG-60K-27, Merck, Darmstadt, Germany): eotaxin-1/CCL11, TGFα, GM-CSF, IFNα2, IFNγ, IL-10, IL-12p40, IL-12p70, IL-13, IL-15, sCD40L, IL-17A, IL-1RA, IL-1α, IL-9, IL-1β, IL-2, IL-3, IL-4, IL-5, IL-6, IL-7, IL-8/CXCL8, IP-10/CXCL10, RANTES/CCL5, TNFα, TNFβ. Multiplex-based assay read-out was performed using the MAGPIX system (Merck) with the xPONENT 4.2 software (Merck, Darmstadt, Germany) in accordance with the manufacturer’s instruction with overnight incubation of the samples with primary antibodies. The final analysis was carried out with the MILLIPLEX Analyst v5.1 software (Merck). Measurements were performed twice for each sample. The release of the analytes in control and experimental samples were compared by unpaired two-sample t-test using GraphPad Prism v.8.0.1. The p values ≤ 0.05 were considered significant.

[2] = system: primary monocytes; assay: Cytokine response (multiplex xMAP immunoassay); assay type: cell-based, human; details: 2 µM peptide, 24 h
Description: as §1

[3] = system: T-/B-/NK-lymphocytes; assay: Cytokine response (multiplex xMAP immunoassay); assay type: cell-based, human; details: 2 µM peptide, 24 h
Description: as §1

[4] = system: PBMC; assay: Cytokine response (multiplex xMAP immunoassay); assay type: cell-based, human; details: 2 µM peptide, 24 h
Description: as §1

[5] = system: E. cloacae XDR CI 4172; assay: Antimicrobial assay (MIC); assay type: cell-based; details: Mueller-Hinton broth supplemented with 0.9% NaCl
Description: (§2) The reduction of resazurin to resorufin was measured.

[6] = system: B. licheniformis VKM B511; assay: Antimicrobial assay (MIC); assay type: cell-based; details: Mueller-Hinton broth supplemented with 0.9% NaCl
Description: as §2

[7] = system: Mycobacterium phlei Ac-1291; assay: Antimicrobial assay (MIC); assay type: cell-based; details: Mueller-Hinton broth supplemented with 0.9% NaCl
Description: as §2

[8] = system: A. baumannii XDR CI 2675; assay: Antimicrobial assay (MIC); assay type: cell-based; details: Mueller-Hinton broth supplemented with 0.9% NaCl
Description: as §2

[9] = system: K. pneumoniae ATCC 700603; assay: Antimicrobial assay (MIC); assay type: cell-based; details: Mueller-Hinton broth supplemented with 0.9% NaCl
Description: as §2

[10] = system: P. mirabilis XDR CI 3423; assay: Antimicrobial assay (MIC); assay type: cell-based; details: Mueller-Hinton broth supplemented with 0.9% NaCl
Description: as §2

[11] = Cytotoxicity (MTT assay); assay type: cell-based, human; details: human
Description: Hemolytic activity of the peptides was tested against the fresh suspension of human red blood cells (hRBC) using the hemoglobin release assay as described previously. Two experiments were performed with the hRBC from blood samples of independent donors. The quantitative data were represented as average means with standard deviations. The colorimetric 3-(4,5-dimethylthiazol-2-yl)-2,5-diphenyltetrazolium bromide (MTT) dye reduction assay was used to determine the cytotoxicity of the peptides against transformed human embryonic kidney cells (HEK293T). 10^4 cells per well in Dulbecco’s modified Eagle’s medium (DMEM/F12) supplemented with 10% fetal bovine serum (FBS; Invitrogen, Waltham, MA, USA) were placed into 96-well plates and then cultured in the CO2-incubator (5% CO2, 37 °C). After the media were removed, the peptides were dissolved in 100 µL of the same medium and added to cell cultures at different final concentrations. 20 h later, 20 μL of MTT (5 mg/mL; Sigma, St. Louis, MO, USA) was added to each well, and the plates were incubated for 4 h at 37 °C. Then, the media were discarded and a 100 µL dimethyl sulfoxide-isopropanol mixture at a ratio of 1:1 (v/v) was added to each well to dissolve the crystallized formazan. The absorbance at 570 nm was measured by a microplate reader AF2200 (Eppendorf, Hamburg, Germany). The optical density in the wells containing cells cultured without the peptides was assumed to represent 100% cell viability. Two independent experiments were performed for each peptide.

[12] = system: panel of reference bacterial pathogens and antibiotic-resistant clinical isolates; details: Mueller–Hinton broth supplemented with 0.9% NaCl
Description: Bacterial test cultures were grown in the Mueller-Hinton broth (MH; Sigma, St. Louis, MO, USA) at 37 °C to mid-log phase and then diluted with the 2× MH medium supplemented with 1.8% NaCl or without salt so that to reach a final cell concentration of 10^6 CFU/mL. 50 µL of the obtained bacterial suspension were added to aliquots of 50 µL of the peptide solutions serially diluted with sterilized 0.1% bovine serum albumin (BSA) in 96-well flat-bottom polystyrene microplates (Eppendorf #0030730011, Hamburg, Germany). […] To verify MIC values, the respiratory activity of the bacteria was determined. Briefly, 20 µL of 0.1 mg/mL resazurin (a redox indicator; Sigma, St. Louis, MO, USA) was added to the wells after 24 h of incubation, and the plate was incubated for an additional two hours. The reduction of resazurin to resorufin was measured. […] The results were expressed as the median values determined based on at least three independent experiments performed in triplicate.

Question: For CC[C@H](C)[C@H](NC(=O)[C@H](CCCNC(=N)N)NC(=O)[C@@H](N)CCCNC(=N)N)C(=O)N[C@@H](CCCNC(=N)N)C(=O)N[C@@H](CCCNC(=N)N)C(=O)N1CCC[C@H]1C(=O)N[C@@H](CCCNC(=N)N)C(=O)N[C@@H](CC(C)C)C(=O)N1CCC[C@H]1C(=O)N[C@@H](CCCNC(=N)N)C(=O)N1CCC[C@H]1C(=O)N[C@@H](CCCNC(=N)N)C(=O)N[C@H](C(=O)N1CCC[C@H]1C(=O)N[C@@H](CCCNC(=N)N)C(=O)N1CCC[C@H]1C(=O)N[C@@H](CCCNC(=N)N)C(=O)N[C@H](C(=O)N1CCC[C@H]1C(=O)N1CCC[C@H]1C(=O)N[C@@H](CCCNC(=N)N)C(=O)N[C@H](C(=O)N1CCC[C@H]1C(=O)N[C@@H](CCCNC(=N)N)C(=O)N1CCC[C@H]1C(=O)N[C@H](C(=O)N[C@@H](CC(C)C)C(=O)N1CCC[C@H]1C(=O)N1CCC[C@H]1C(=O)N1CCC[C@H]1C(=O)N[C@@H](CCCNC(=N)N)C(=O)N[C@H](C(=O)N1CCC[C@H]1C(=O)N[C@@H](Cc1ccccc1)C(=O)N1CCC[C@H]1C(=O)N[C@@H](CCCNC(=N)N)C(=O)N[C@@H](Cc1ccccc1)C(=O)N1CCC[C@H]1C(=O)N[C@@H](CCCNC(=N)N)C(N)=O)C(C)C)C(C)C)[C@@H](C)CC)[C@@H](C)CC)C(C)C [VicBac[1-39]] (H-RRIRRPRLPRPRVPRPRIPPRIPRPVLPPPRVPFPRFPR-NH2; N-terminus assumed), which “TNFα production by macrophages” value ([1]; control 12.94 pg/mL, significance level quite low) is on record?
Answer: 28.68 pg/mL

Question: What about the “IL-1RA on pro-inflammatory macrophages” value ([1]; control 25.21 pg/mL) of the same compound?
Answer: 9.47 pg/mL

Question: And the “Production of TNFα by monocytes” value ([2]; control 18.47 pg/mL, two biological replications)?
Answer: 11.41 pg/mL

Question: What about the “IL-1RA on primary monocytes” value ([2]; control 163.77 pg/mL) of the same compound?
Answer: 37.82 pg/mL

Question: And the “Production of RANTES/CCL5 on primary monocytes” value ([2]; control 284.28 pg/mL)?
Answer: 71.5 pg/mL

Question: What about the “CXCL10/IP-10 production in the T/B/NK culture” value [3] of the same compound?
Answer: elevated

Question: And the “IL-1RA on PBMC” value ([4]; control 95.52 pg/mL)?
Answer: 18.79 pg/mL

Question: And the “Production of RANTES/CCL5 on PBMC” value ([4]; control 286.63 pg/mL)?
Answer: 54.72 pg/mL

Question: And the “MIC, E. cloacae XDR CI 4172” value [5]?
Answer: 4 µM (≈ 19.3 µg/mL)

Question: And the “MIC, B. licheniformis VKM B511” value [6]?
Answer: 1 µM (≈ 4.82 µg/mL)

Question: And the “MIC, Mycobacterium phlei Ac-1291” value [7]?
Answer: 0.5 µM (≈ 2.41 µg/mL)

Question: What about the “MIC, A. baumannii XDR CI 2675” value [8] of the same compound?
Answer: 8 µM (≈ 38.5 µg/mL)

Question: And the “MIC, K. pneumoniae ATCC 700603” value [9]?
Answer: 2 µM (≈ 9.64 µg/mL)

Question: And the “MIC, P. mirabilis XDR CI 3423” value [10]?
Answer: 8 µM (≈ 38.5 µg/mL)

Question: And the IC50 at 20 h [11]?
Answer: ~100 µM

Question: What about the “MIC values, in most cases, against panel of reference pathogens and clinical isolates” value [12] of the same compound?
Answer: 0.25 to 8 µM
